# Entries after “also recorded” stand apart in the source; their conditions may differ. Where two headings read alike, the source gives them in different places.
# Columns and labels:
# [1] = tested on: PANC-1 pancreatic cancer cell line; test: MTT cell proliferation assay, PANC-1; type: cell-based, human; conditions: for IC50: Homo sapiens, PANC-1, MTT
# Procedure: (§1) The cell lines were obtained from Public Health England Culture Collections. MIA-PaCa-2 is a human pancreatic carcinoma cell line; PANC-1 is a human pancreatic epithelioid carcinoma cell line.
# (§2) Assays were performed in triplicate.
# (§3) Cells were then cultured for 24 hr prior to assay, then cell proliferation was measured.
# (§4) With both cell lines 5FU was used at its IC50. The IC50 concentration represents the concentration at which a substance exerts half of its maximal inhibitory effect. The IC50 for each cell line was calculated by treating with a series of 10-fold dilutions of 5FU ranging from 1 nM to 10 mM. The MTT assay was used to calculate cancer cell viability after 72 hr incubation with 5FU at each concentration.
# [2] = tested on: MIA PaCa-2 pancreatic cancer cell line; test: MTT cell proliferation assay, MIA PaCa-2; type: cell-based, human
# Procedure: as §1, §2, §3, §4
# [3] = tested on: p-STAT3 (Tyr705); test: Expression of apoptosis related protein p-STAT3 (flow cytometry); type: cell-based, human; conditions: MDX-124 20 μM, bortezomib 20 nM or both, 4 h; multiple myeloma cell lines
# Procedure: (§5) The effects of MDX-124, bortezomib and the combination of both agents on the expression of 2 apoptosis related proteins, p-BCL2 and p-STAT3, was assessed using flow cytometry. Aliquots of each human multiple myeloma cell line were treated with either MDX-124 (20 μM), bortezomib (20 nM) or a combination of MDX-124 and bortezomib for 4 h prior to staining with an Alexa488-labelled p-STAT3 (Tyr705, from BD Biosciences, catalogue #557814) antibody and a PE-labelled p-BCL2 ([…], BD Biosciences, catalogue #562532) antibody. Mean fluorescence intensity values for each treatment group were compared with untreated control cells.
# [4] = tested on: interleukin-6 (IL-6); test: Intracellular IL-6 expression (flow cytometry); type: cell-based, human; conditions: MDX-124 20 μM, bortezomib 20 nM or both, 24h; multiple myeloma cell lines
# Procedure: The effects of each agent, both alone and in combination, on the expression of interleukin-6 (IL-6) were assessed using flow cytometry. […] Mean fluorescence intensity values for IL-6 for each respective treatment group were compared with untreated control cells.
# [5] = tested on: Human multiple myeloma cell lines (H929, JJN3 and U266); test: Apoptosis assay (Annexin V and 7-AAD labelling, flow cytometry); type: cell-based; conditions: MDX-124 20 μM, bortezomib 20 nM or both (1000:1), 48 h
# Procedure: The effect of MDX-124, bortezomib and the combination of both agents on apoptosis was assessed using Annexin V and 7-AAD labelling. Human multiple myeloma cell lines (H929, JJN3 and U266, all from DSMZ, Leibniz Institute, German Collection of Microorganisms and Cell Cultures, GmbH, Germany) were incubated with either MDX-124 (20 μM), bortezomib (20 nM, Cell Signaling Technology, MA, USA) or the combination of both agents (fixed molar ratio of 1000:1) in 1 mL of RPMI media supplemented with 10% FCS for 48 h. The percentage of apoptosis above untreated control cell levels was quantified using flow cytometry for each respective treatment group.
# [6] = tested on: p-BCL2 (pS70); test: Expression of apoptosis related protein p-BCL2 (flow cytometry); type: cell-based, human; conditions: MDX-124 20 μM, bortezomib 20 nM or both, 4 h; multiple myeloma cell lines
# Procedure: as §5
# [7] = tested on: triple-negative breast cancer cell line HCC1806; test: MTT cell proliferation assay, HCC1806
# [8] = tested on: LL/2 lung cancer cells; test: LL/2 murine model of lung cancer; type: in vivo, C57BL/6 mice; conditions: LL/2, MDX-124 10 mg/kg weekly, anti-PD-1 10 mg/kg twice weekly; two-way repeated measures ANOVA/mixed-effects model
# Procedure: Drugs were administered as described above. Tumour volume was measured at days 2, 5, 8, 12 and 15, at which point the vehicle and monotherapy groups were terminated. The combination therapy group was measured again at day 19 and then terminated.
# Results were analysed using a two-way repeated measures ANOVA/mixed-effects model. […] No body weight loss was detected in this study.
# [9] = tested on: EMT6 triple-negative breast cancer cells; test: EMT6 mouse model of breast cancer; type: in vivo, BALB/c mice
# Procedure: Nine-week-old female BALB/c mice were inoculated subcutaneously with 5×10^5 EMT6 triple-negative breast cancer cells. […] Tumour volume was measured twice weekly for 3 weeks. The anti-PD-1 antibody used is the mouse antibody RMP-1-14 (Yamazaki et al., Journal of Immunology 175(3): 1586-1592, 2005); PBS was administered by intraperitoneal injection; antibodies were administered by intravenous injection.
molecule,measurement,setting,value
"O=c1[nH]cc(F)c(=O)[nH]1 [5FU, 5-fluorouracil, reference compound]",IC50,"[1]; 72 hr incubation, repeated 8 times, read-out: IC50 of 5FU (concentration at which 50% of cells were not viable)",1000 µM
same,IC50,"[2]; Homo sapiens, MIA PaCa-2, MTT, 72 hr incubation, repeated 8 times, read-out: IC50 of 5FU (concentration at which 50% of cells were not viable)",100 µM
"CC(C)C[C@H](NC(=O)[C@H](Cc1ccccc1)NC(=O)c1cnccn1)B(O)O [bortezomib, reference compound]",expression of p-STAT3 (mean fluorescence intensity vs untreated control cells),[3],reduced the expression
same,intracellular IL-6 expression (mean fluorescence intensity vs untreated control cells),[4],modestly reduced
same,apoptosis (percentage above untreated control cell levels),[5],significantly induced apoptosis
same,expression of p-BCL2 (mean fluorescence intensity vs untreated control cells),[6],reduced the expression
"N.N.[Cl][Pt][Cl] [cisplatin, reference compound]",IC50,"[7]; read-out: IC50 of cisplatin (concentration at which 50% of cells were not viable), HCC1806, MTT, repeated four times",0.65 µM
"Nc1ccn([C@@H]2O[C@H](CO)[C@@H](O)C2(F)F)c(=O)n1 [gemcitabine, reference compound]",IC50,"[1]; repeated three times, read-out: IC50 of gemcitabine (concentration at which 50% of cells were not viable)",20 µM
"CC(=O)O[C@H]1C(=O)[C@@]2(C)[C@H]([C@H](OC(=O)c3ccccc3)[C@]3(O)C[C@H](OC(=O)[C@H](O)[C@@H](NC(=O)c4ccccc4)c4ccccc4)C(C)=C1C3(C)C)[C@]1(OC(C)=O)CO[C@@H]1C[C@@H]2O [paclitaxel, reference compound]",IC20,"[7]; Homo sapiens, HCC1806, read-out: IC20 of paclitaxel (concentration at which 20% of cells were not viable)",0.0004 µM
MDX-124: humanised IgG1 antibody against ANXA1 with a light chain of SEQ ID NO: 13 and a heavy chain of SEQ ID NO: 14,"anti-proliferative effect, single agent","[7]; HCC1806, MDX-124 alone 2.5-10 μM, vs IgG isotype control",significantly reduces cancer cell proliferation; also recorded: anti-proliferative effect
same,"anti-proliferative effect, single agent","[1]; PANC-1, MDX-124 alone 2.5-10 μM, 72 hours, vs IgG isotype control",significantly reduces cancer cell proliferation; also recorded: relatively potent anti-proliferative effect
same,"anti-proliferative effect, single agent","[2]; MIA PaCa-2, MDX-124 alone 2.5-10 μM, 72 hours, vs IgG isotype control",significantly reduces cancer cell proliferation; also recorded: relatively potent anti-proliferative effect
same,expression of p-STAT3 (mean fluorescence intensity vs untreated control cells),[3],reduced the expression
same,intracellular IL-6 expression (mean fluorescence intensity vs untreated control cells),[4],modestly reduced
same,tumour growth compared to vehicle (and monotherapies),[8],No significant differences
same,apoptosis (percentage above untreated control cell levels),[5],had an impact on apoptosis
same,expression of p-BCL2 (mean fluorescence intensity vs untreated control cells),[6],reduced the expression
"MDX-001: murine anti-ANXA1 antibody, parent of MDX-124; light and heavy chains of SEQ ID NOs: 30 and 31 (antibody, listed as Mus musculus) heavy: QVQLQQSGPELVRPGTSVKMSCKASGYTFTNYWIGWAKQRPGHGLEWIGDIYPGGDYTNYNEKFKGKATLTADKSSSTAYMQFSSLTSEDSAIYYCARWGLGYYFDYWGQGITLTVSSAKTTPPSVYPLAPGCGDTTGSSVTLGCLVKGYFPESVTVTWNSGSLSSSVHTFPALLQSGLYTMSSSVTVPSSTWPSQTVTCSVAHPASSTTVDKKLEPSGPISTINPCPPCKECHKCPAPNLEGGPSVFIFPPNIKDVLMISLTPKVTCVVVDVSEDDPDVQISWFVNNVEVHTAQTQTHREDYNSTIRVVSTLPIQHQDWMSGKEFKCKVNNKDLPSPIERTISKIKGLVRAPQVYILPPPAEQLSRKDVSLTCLVVGFNPGDISVEWTSNGHTEENYKDTAPVLDSDGSYFIYSKLNMKTSKWEKTDSFSCNVRHEGLKNYYLKKTISRSPGK light: DAVMTQTPLSLPVSLGDQVSISCRSSQSLENSNGKTYLNWYLQKPGQSPQLLIYGVSNRFSGVLDRFSGSGSGTDFTLKISRVEAEDLGVYFCLQVTHVPYTFGGGTKLEIKRADAAPTVSIFPPSSEQLTSGGASVVCFLNNFYPKDINVKWKIDGSERQNGVLNSWTDQDSKDSTYSMSSTLTLTKDEYERHNSYTCEATHKTSTSPIVKSFNRNEC",tumour growth compared to the vehicle control,"[9]; EMT6, MDX-001 10 mg/kg weekly, anti-PD-1 10 mg/kg twice weekly, i.v., 3 weeks",did not significantly affect tumour growth
same,adverse effects,[9]; EMT6 model,no adverse effects
same,tumour growth compared to vehicle (and monotherapies),[8],neither MDX-001 nor the anti-PD-1 antibodies displayed efficacy

# Source: patent US20250025553A1, “COMBINATION THERAPY FOR CANCER” (Medannex Ltd., priority 2021, published 2025)
